What was measured:
androgen receptor = molecular target: T1, androgen receptor (Homo sapiens, UniProt P10275, T878A); experiment: In-Cell-Western determination of androgen receptor degradation in LnCaP cells; assay type: cell-based; settings: for Dmax: LNCaP; for DC50: concentration for half of the maximal degradation of AR in LnCaP cells, 24 hours treatment
T1 construct: endogenous in cells; host or cells: LNCaP cells
T1 sequence (P10275 1-920 T878A): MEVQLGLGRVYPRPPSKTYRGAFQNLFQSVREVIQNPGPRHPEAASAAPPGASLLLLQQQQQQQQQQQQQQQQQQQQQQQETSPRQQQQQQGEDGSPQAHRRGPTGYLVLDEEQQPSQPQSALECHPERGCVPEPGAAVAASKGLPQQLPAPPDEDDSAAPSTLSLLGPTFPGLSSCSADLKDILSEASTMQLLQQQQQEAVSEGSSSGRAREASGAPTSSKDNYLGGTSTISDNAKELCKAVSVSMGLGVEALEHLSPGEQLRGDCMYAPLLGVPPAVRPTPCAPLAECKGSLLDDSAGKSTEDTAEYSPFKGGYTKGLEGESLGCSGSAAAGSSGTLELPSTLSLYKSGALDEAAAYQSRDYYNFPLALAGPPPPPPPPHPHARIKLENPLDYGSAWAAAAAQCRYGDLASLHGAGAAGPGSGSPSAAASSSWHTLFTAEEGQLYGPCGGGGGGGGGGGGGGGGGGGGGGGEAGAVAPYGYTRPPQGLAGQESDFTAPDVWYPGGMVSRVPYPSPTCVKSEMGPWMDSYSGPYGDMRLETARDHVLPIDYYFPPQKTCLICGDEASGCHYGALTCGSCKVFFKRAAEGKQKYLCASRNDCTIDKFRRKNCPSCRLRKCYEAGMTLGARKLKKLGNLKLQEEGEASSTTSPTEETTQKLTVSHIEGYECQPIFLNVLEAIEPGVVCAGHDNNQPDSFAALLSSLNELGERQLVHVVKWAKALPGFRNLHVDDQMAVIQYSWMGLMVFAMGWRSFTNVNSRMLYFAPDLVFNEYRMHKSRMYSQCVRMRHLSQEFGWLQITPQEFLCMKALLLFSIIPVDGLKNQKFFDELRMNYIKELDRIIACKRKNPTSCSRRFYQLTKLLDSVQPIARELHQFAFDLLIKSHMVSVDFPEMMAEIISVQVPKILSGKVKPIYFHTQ
Description: The determination evaluated the properties of the compounds in Lncap cells. Intracellular androgen receptor was determined by In-Cell-Western according to the determination steps described below.
In poly-D-Lysin pretreated 96-well cell culture plate (Corning 3599), LNcap cells were divided into 100 μL/well volume, and inoculated with 30,000 cells/well in LNcap cell assay medium [DMEM containing phenol red (Gibco catalog number: 11995065); fetal bovine serum FBS (Gibco catalog number: 10099141C)]. Cells were cultured for at least two days.
1. First treated cells with compound. Compounds were gradient diluted with DMSO and cell culture medium, so that DMSO contained in cell culture plates was diluted to 0.5% —polypropylene plates were used according to the following protocol: (1)(i) 200× stock plate in DMSO was prepared; (ii) 10 mM stock solution was diluted 1:4 with DMSO (10 μL stock solution+40 μL DMSO)=2000 μM, then entered into row 2; (iii) 1:4 (10 μL protac+40 μL DMSO) gradient dilution was performed from row 2 to row 9, and row 1 was reserved for […] reference compound and row 10 for DMSO. (iv) A total of 8 concentrations (final concentrations on the 200× plate were 2000 μM, 400 μM and 80 μM, etc.). (2) (i) 3× stock solution was prepared in the medium. (ii) 3 μL of 200× stock solution was transferred to 197 µL of culture medium (using 12-channel pipette, from line 1 to line 10), i.e. 3× stock solution plate. (iii) The stock solution plate was mixed evenly. (3) (i) The culture medium of […] cells was replaced with fresh culture medium, 100 μL volume culture medium. (ii) The well-mixed 3× stock solution was transferred to the cell culture plate (using a 12-channel pipette, and 50 μL of stock solution was transferred from line 1 to line 10). (iii) Cells were cultured for 24 hours.
2. The expression level of intracellular androgen receptor after compound treatment was […] and determined according to the following method.
(1)(i) Equal volume of 8% paraformaldehyde was added to the cell culture plate for cell fixation. The fixing solution in the cell plate was discarded and washed three times with PBS. (ii) Triton solution (1:1000 dilution of the stock solution) was prepared. The solution in the cell plate was discarded, and 200 μL of Triton diluent was added into each well. (iii) 2×blocking solution (1:4 dilution of 10×blocking stock solution) was prepared. The solution in the cell plate was discarded, and 100 μL of 2×blocking solution was added into each well. (iv) Primary antibody solution (Androgen receptor Rabbbit mAb, Cell Signaling Technology catalog number: 5153; 1:1000 dilution) was prepared. The solution in the cell plate was discarded, 100 μL volume of primary antibody diluent was added to each well, and incubated at 4° C. overnight. (v) The primary antibody solution was discarded and the cell plate was washed with 1×Wash buffer. (vi) Secondary antibody solution (GOAT Antirabbit IgG (H+L), HRP, Thermo catalog number: 31460; 1:5000 dilution) was prepared, and 100 μL volume of secondary antibody dilution was added to each well for incubation. (vii) The secondary antibody solution in the cell plate was discarded and the cell plate was washed with 1×Wash buffer. (viii) TMB chromogenic solution (BD catalog number: 550534) was prepared, and 100 μL chromogenic solution was added into each well. (ix) 50 μL volume of stop solution (BD catalog number: 550534) was added to each well. (x) The absorption values at OD 450 nm and 570 nm were read though EnVision. (2) (i) Normalized analysis was performed on the number of cells in each well. The solution in the cell plate was discarded, and washed with wash buffer for three times. (ii) Janus dilution (1:3 dilution) was prepared. (iii) 50 μL volume diluent was added to each well for incubation. (iv) The solution in the plate was discarded and washed with deionized water. […]

[1] = In vivo pharmacokinetics in mice, intravenous injection and oral administration; set-up: species or system mouse; settings: male CD1 mice
Description: In this experimental example, in vivo pharmacokinetics in mice were evaluated by intravenous injection and oral administration.
Experimental methods and conditions: Male CD1 mice, aged 6-8 weeks, all animals were free access to food and water, and were given a single dose of the compound to be tested at 1 mg/Kg by intravenous injection (solvent 5% DMSO/15% Solutol/80% Saline), at 5 min, 15 min, 30 min, 1 hr, 2 hr, 4 hr, 8 hr, 24 hr, 48 h after drug administration, or oral gavage administration of 10 mg/kg (solvent 5% DMSO/10% Solutol/85% Saline), at 15 min, 30 min, 1 hr, 2 hr, 4 hr, 6 h, 8 hr, 24 hr, 48 h after administration, blood was collected from the orbit, no less than 50 μL for each sample, heparin sodium was used for anticoagulation, and then placed on ice after collection, and centrifuged within 1 hour to separate the plasma for testing. The plasma concentration of the drug was detected by liquid tandem mass spectrometry (LC/MS/MS), and the pharmacokinetic parameters were calculated by Phoenix WinNonlin software.

[2] = mouse, intravenous administration 1 mg/kg, plasma
[3] = mouse, oral administration 10 mg/kg, plasma

SMILES | Dmax (androgen receptor) [%] | DC50 (androgen receptor) [nM] | F ([1]; oral administration 10 mg/kg vs intravenous 1 mg/kg) [%] | AUC(0-inf) [1, 2] [ng·h/mL] | clearance [1, 2] [mL/min/kg] | half-life [1, 2] [h] | AUC(0-inf) [1, 3] [ng·h/mL] | Cmax [1, 3] [ng/mL] | half-life [1, 3] [h]
CC1(C)C(=O)N(c2ccc(C#N)c(Cl)c2)c2ccc(-c3ccc(N4CC(CN5CCN(c6ccc7c(c6)C(=O)N(C6CCC(=O)NC6=O)C7=O)CC5)C4)cc3)cc21 (stereo not shown) [Compound 1] | 82 | 90.3 | – | – | – | – | – | – | –
CC1(C)C(=O)N(c2ccc(C#N)c(C(F)(F)F)c2)c2ccc(-c3ccc(N4CC(CN5CCN(c6ccc7c(c6)C(=O)N(C6CCC(=O)NC6=O)C7=O)CC5)C4)cc3)cc21 (stereo not shown) [Compound 3] | 89 | 87.1 | – | – | – | – | – | – | –
CC1(C)C(=O)N(c2ccc(C#N)c(Cl)c2)c2ccc(-c3ccc(N4CC(CN5CCN(c6ccc7c(c6)C(=O)N(C6CCC(=O)NC6=O)C7=O)CC5)C4)nc3F)cc21 (stereo not shown) [Compound 14] | 93 | 66.3 | 68.6 | 10400 | 1.61 | 20.4 | 71100 | 2650 | 17.8

Source: patent publication US12441706B2, “Protein degradation agent compound preparation method and application” (SHANGHAI JEMINCARE PHARMACEUTICALS CO., LTD., priority 2019, dated 2025)
